Experimental data as given in patent US20240418707A1, “SELF-ORGANIZING NEURO-MUSCULAR JUNCTION CELL CULTURE MODEL” (Max-Delbrück-Centrum für Molekulare Medizin in der …, priority 2023, published 2024).
Entries after “also recorded” stand apart in the source; their conditions may differ.

What was measured:
Assay type in all cases: cell-based, human
[1] = test system: SMA type I hiPSC derived soNMJ cultures; assay: Muscle contraction analysis in SMA type I soNMJ model; details: day 50, 10 μM, compared to H1 control
Protocol: (§1) Three different regions of the same coverslip were recorded for contraction analysis using a Leica SP8 confocal microscope. Each region was recorded twice for 3 minutes using brightfield with 20× zoom. To quantify the muscle contraction, each movie was analyzed individually using MuscleMotion (an open source ImageJ Macro). A reference frame was automatically detected by MuscleMotion to measure the contraction as a variation in pixel over time. The results were then plotted in Prism8 (GraphPad).

NMJs of the soNMJ model = assay: Optogenetic (Channelrhodopsin) stimulation of neurons with muscle contraction readout
Protocol: For specifically stimulating neurons in the neuromuscular culture, cells were incubated with 1E+9 VG/mL AAV8-hSyn-hChR2 (H134R)-GFP for 48 h at day 50. After 3-4 weeks, the expression of ChR2 (H134R)-GFP was assessed using a confocal microscope. Cultures were transferred to the electrophysiology setup described above, and continuously superfused with HEPES-buffered extracellular solution at room temperature. Bright-field images of 2048×2048 were acquired at 10 Hz using an sCMOS camera (Photometrics Prime BSI Express) with 50 ms exposure time. Every 50 s, ChR2-expressing neurons were optically stimulated with three 5-ms flashes of 470 nm light at 10 Hz, with 10 mW/mm2 intensity. For the analysis, the muscle contraction recorded in brightfield was quantified using MuscleMotion (described below), plotted in Prism8 (GraphPad) and correlated to the light […] pulses.
as §1

[2] = test system: skeletal muscles in the soNMJ model; assay: Contraction analysis of soNMJ model by live imaging; details: soNMJ model day 75, control hPSC lines (H1, XM001); 10 μM curare
Protocol: as §1

[3] = test system: skeletal muscle fibers and neurons of the soNMJ model; assay: Calcium imaging with Fluo8 in neuromuscular cultures; details: day 75, Fluo8-AM, 10 μM curare
Protocol: Between day 50 and day 100, the cells were incubated at 37° C. with […] of the cell permeant calcium indicator Fluo-8 AM (Abcam). After 30 minutes of incubation, the cells were washed two times with culture medium (NB without phenol red) and left to recover for 15 min in the incubator prior to the start of any optical recording. During acquisition, the samples were kept at 37° C. with 5% CO2. Fluorescent time series images were acquired with a CSU-W1 spinning disk confocal microscope. The calcium transients were recorded for 2-3 minutes at 20 frames per second in three different conditions: without any treatment, with addition of […] Acetylcholine (Sigma Aldrich) and with addition of 10 μM Curare (Sigma Aldrich).
Analysis of the calcium activity was performed by measuring the variation of fluorescence intensity in each ROI with ImageJ. ROIs were detected manually, and neurons and muscle cells could be distinguished by morphology. The variation of fluorescence intensity for each individual ROI was then plotted in Prism 8 (GraphPad).

curare
muscle contraction in SMA type I soNMJ [1]: did not respond; also recorded: failed to stop spontaneous muscle activity | muscle contraction upon optogenetic stimulation of ChR2-GFP+ neurons (NMJs of the soNMJ model; day 75, 470 nm light pulse, 10 μM curare): inhibition of muscle contraction even upon optogenetic stimulation; also recorded: blocked the optogenetic stimulation of the skeletal muscles | muscle contraction response to blue light stimulation after washout (NMJs of the soNMJ model; day 75, after washing out curare): restored by washing out curare | skeletal muscle contraction [2]: blocked the contraction of the skeletal muscles | calcium activity / firing of the neurons [3]: without affecting the firing of the neurons | calcium activity in skeletal muscle fibers [3]: blocked the calcium activity in the skeletal muscle fibers; also recorded: abolished the calcium activity in the skeletal muscles
